Source: paper PMC8187479, “Sugar phosphate activation of the stress sensor eIF2B” (Nature Communications, 2021)
Where “and” joins values, the source holds several entries; their conditions need not be identical. Identical values can stand only once. Peptide text beside a SMILES is read from it.

Columns and labels:
eIF2Bα [1] = target: T1, eIF2Bα (Homo sapiens, UniProt Q14232); experiment: MIDAS (mass spectrometry integrated with equilibrium dialysis) metabolite binding screen
T1 construct: made in house; host or cells: E. coli BL21(DE3)
T1 sequence (Q14232 1-305): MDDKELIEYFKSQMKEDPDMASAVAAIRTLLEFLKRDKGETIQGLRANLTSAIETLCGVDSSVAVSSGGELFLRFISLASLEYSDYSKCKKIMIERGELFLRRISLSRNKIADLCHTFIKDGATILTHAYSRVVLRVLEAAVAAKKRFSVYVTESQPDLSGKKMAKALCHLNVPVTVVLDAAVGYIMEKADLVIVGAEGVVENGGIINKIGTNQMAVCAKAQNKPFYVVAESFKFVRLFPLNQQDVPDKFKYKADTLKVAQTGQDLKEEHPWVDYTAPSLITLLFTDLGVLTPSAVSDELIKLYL
Outline: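 Hits called at Storey q < 0.1 on z-scores of PCA-corrected log2 fold change between protein and metabolite chambers, quantified by FIA-MS in triplicate.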

eIF2Bα [2] = target: T1, eIF2Bα; experiment: Differential scanning fluorimetry (Protein Thermal Shift), eIF2Bα Tm; type: binding; conditions: individual replicates Rep 1-4, control without metabolite about 64.1
Description: The effect of metabolite binding on eIF2Bα Tm was assessed using the Protein Thermal Shift assay (Thermo Fisher), following manufacturer’s instructions. Briefly, reaction conditions for each 20 μL reaction were: 1.1 μg (1.5 μM) of eIF2Bα, 5 μl Thermal Shift buffer, 1X Thermal Shift dye, and metabolites in dose response. Reactions were run in 384-well format on a QuantStudio 6 Flex instrument (Thermo Fisher). The resulting melt curves were analyzed using Protein Thermal Shift Software, and eIF2Bα Tms for each condition were calculated by fitting to the Boltzmann function.

eIF2B = target: T2, eIF2B (Homo sapiens, UniProt P49770+Q14232+Q9UI10); experiment: eIF2B GEF activity assay, unbiased metabolite screen (Bodipy-FL-GDP release); type: biochemical; conditions: 10 μM metabolite
T2 construct: made in house; host or cells: eIF2Bα: E. coli BL21(DE3)
T2 sequence (P49770 whole entry, one chain of several): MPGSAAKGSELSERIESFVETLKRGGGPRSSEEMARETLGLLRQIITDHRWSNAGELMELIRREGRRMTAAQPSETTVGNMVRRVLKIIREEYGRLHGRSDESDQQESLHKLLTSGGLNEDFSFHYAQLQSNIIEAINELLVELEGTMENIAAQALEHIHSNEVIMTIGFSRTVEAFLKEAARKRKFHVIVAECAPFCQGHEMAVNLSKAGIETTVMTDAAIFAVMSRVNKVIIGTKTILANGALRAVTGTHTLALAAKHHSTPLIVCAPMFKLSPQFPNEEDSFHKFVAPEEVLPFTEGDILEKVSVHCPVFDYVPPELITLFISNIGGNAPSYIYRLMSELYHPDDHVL
T2 sequence (Q9UI10 whole entry, one chain of several): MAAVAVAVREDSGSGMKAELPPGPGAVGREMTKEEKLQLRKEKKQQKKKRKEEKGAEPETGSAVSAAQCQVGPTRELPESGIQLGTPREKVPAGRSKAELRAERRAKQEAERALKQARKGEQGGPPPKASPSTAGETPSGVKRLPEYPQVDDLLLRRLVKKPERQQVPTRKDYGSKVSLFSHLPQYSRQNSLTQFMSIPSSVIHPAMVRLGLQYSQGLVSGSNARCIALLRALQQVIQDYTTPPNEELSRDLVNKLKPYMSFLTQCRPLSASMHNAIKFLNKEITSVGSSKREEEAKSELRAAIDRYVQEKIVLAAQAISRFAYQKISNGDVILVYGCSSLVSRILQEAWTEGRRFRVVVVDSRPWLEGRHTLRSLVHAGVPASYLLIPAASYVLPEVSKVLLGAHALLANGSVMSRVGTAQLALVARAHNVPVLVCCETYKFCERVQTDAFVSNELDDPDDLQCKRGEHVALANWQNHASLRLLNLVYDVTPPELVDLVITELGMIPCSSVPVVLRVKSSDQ
T2 sequence (Q9NR50 whole entry partner, one chain of several): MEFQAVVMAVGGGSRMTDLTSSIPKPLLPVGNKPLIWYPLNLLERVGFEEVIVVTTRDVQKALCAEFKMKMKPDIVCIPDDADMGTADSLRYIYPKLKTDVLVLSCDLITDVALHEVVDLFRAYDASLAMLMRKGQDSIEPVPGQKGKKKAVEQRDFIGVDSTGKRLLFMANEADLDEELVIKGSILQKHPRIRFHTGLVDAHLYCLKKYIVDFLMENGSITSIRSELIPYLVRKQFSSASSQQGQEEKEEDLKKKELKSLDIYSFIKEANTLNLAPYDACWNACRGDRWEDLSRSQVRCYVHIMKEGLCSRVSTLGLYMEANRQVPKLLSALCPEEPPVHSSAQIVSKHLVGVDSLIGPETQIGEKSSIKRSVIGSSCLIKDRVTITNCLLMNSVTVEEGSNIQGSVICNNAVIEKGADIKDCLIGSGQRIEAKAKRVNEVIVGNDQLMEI
T2 sequence (Q13144 whole entry partner, one chain of several): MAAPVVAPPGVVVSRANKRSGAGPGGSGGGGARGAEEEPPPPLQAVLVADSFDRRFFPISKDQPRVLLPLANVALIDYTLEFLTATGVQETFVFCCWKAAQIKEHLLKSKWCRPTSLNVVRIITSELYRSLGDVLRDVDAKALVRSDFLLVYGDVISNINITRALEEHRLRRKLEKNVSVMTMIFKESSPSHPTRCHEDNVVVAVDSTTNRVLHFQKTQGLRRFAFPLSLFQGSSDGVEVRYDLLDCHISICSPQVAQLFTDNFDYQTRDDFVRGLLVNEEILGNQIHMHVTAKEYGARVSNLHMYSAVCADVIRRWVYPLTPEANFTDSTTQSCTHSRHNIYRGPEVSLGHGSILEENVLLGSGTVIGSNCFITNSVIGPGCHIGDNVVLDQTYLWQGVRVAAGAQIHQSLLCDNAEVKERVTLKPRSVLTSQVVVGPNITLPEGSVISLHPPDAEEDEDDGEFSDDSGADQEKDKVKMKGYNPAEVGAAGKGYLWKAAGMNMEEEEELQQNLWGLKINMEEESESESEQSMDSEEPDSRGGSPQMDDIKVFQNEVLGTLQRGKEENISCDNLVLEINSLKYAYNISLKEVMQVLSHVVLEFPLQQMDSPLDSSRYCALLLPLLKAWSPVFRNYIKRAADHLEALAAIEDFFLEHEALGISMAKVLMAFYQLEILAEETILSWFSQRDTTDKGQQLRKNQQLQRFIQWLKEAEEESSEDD
Description: Bodipy-FL-GDP-loaded eIF2 was used as a substrate for recombinant eIF2B. The assay was performed in 384-well plates. Reactions were read on a SpectraMax i3x plate reader (Molecular Devices) using the instrument’s Softmax Pro software with the following parameters: plate temperature = 25 °C; excitation wavelength = 485 nm (15 nm width); emission wavelength = 535 nm (25 nm width); read duration = 30 min at 45 s intervals. Data were analyzed in Prism. GDP release half-lives were calculated by fitting single-exponential decay curves.
For unbiased screening, MIDAS metabolite libraries at 10 mM stock concentration were dispensed into wells of the assay plate using an Echo Acoustic Liquid Handler (Labcyte). […] A single well was run for each metabolite. […] For targeted experiments with HEK293T lysates, the following conditions were used: 50 nM Bodipy-FL-GDP-loaded eIF2, 0.1 mM GDP, 1 mg/ml BSA, 0.1 or 0.3 mg/ml lysates.

[3] = MIDAS metabolite binding screen with eIF2Bα, sheet "eIF2Ba"
[4] = MIDAS screen, sheet eIF2Ba, metabolites screened in pools 1-4, p-value and q-value given

Compound | log2(corrected fold change) (eIF2Bα [1]; [3]) | log2(corrected fold change) (eIF2Bα [1]; [4]) | further results
N[C@@H](Cc1ccc(O)cc1)C(=O)O [L-tyrosine] |  |  | MIDAS result (enrichment in the protein chamber / hit status) (eIF2Bα [1]; eIF2Bα2, 50 μM per metabolite pool, 40 h dialysis at 4 °C): most enriched metabolite identified; Tm of eIF2Bα (eIF2Bα [2]; 0.33 mM metabolite): 64.527 °C and 64.3045 °C and 63.9825 °C and 63.5986 °C; Tm of eIF2Bα (eIF2Bα [2]; 1 mM metabolite): 65.9465 °C and 65.8614 °C and 65.2637 °C and 64.606 °C; Tm of eIF2Bα (eIF2Bα [2]; 5 mM metabolite): 66.2946 °C and 66.2026 °C and 66.1461 °C and 65.4309 °C
O=C(COP(=O)(O)O)[C@@H](O)[C@H](O)[C@H](O)COP(=O)(O)O [Fructose-1,6-bisphosphate] |  |  | Tm of eIF2Bα (eIF2Bα [2]; 0.33 mM metabolite): 64.6451 °C and 64.2202 °C and 65.137 °C and 65.0552 °C; Tm of eIF2Bα (eIF2Bα [2]; 1 mM metabolite): 65.6845 °C and 64.643 °C and 66.191 °C and 66.0945 °C; Tm of eIF2Bα (eIF2Bα [2]; 3.3 mM metabolite): 65.4601 °C and 64.9088 °C and 65.6023 °C and 65.9064 °C; Tm of eIF2Bα (eIF2Bα [2]; 10 mM metabolite): 67.1254 °C and 66.1581 °C and 67.3047 °C and 67.21 °C
O=C[C@H](O)[C@H](O)[C@H](O)COP(=O)(O)O [Ribose-5-phosphate] |  |  | Tm of eIF2Bα (eIF2Bα [2]; 0.33 mM metabolite): 63.6082 °C and 63.1309 °C and 63.9035 °C and 63.9145 °C; Tm of eIF2Bα (eIF2Bα [2]; 1 mM metabolite): 65.8453 °C and 64.5885 °C and 66.0863 °C and 66.0043 °C; Tm of eIF2Bα (eIF2Bα [2]; 3.3 mM metabolite): 65.9356 °C and 65.2316 °C and 66.3491 °C and 65.7067 °C; Tm of eIF2Bα (eIF2Bα [2]; 10 mM metabolite): 67.199 °C and 66.1831 °C and 67.4737 °C and 67.2666 °C
Nc1ncnc2c1ncn2[C@@H]1O[C@H](COP(=O)(O)OP(=O)(O)O)[C@@H](O)[C@H]1O [ADP, Adenosine diphosphate] | -0.09804 |  | effect on eIF2B GEF activity in the screen (eIF2B): a hit in this functional assay screen
N[C@@H](Cc1ccccc1)C(=O)O [L-Phenylalanine] | -0.04409 |  | 
N[C@@H](COP(=O)(O)O)C(=O)O [O-Phospho-L-serine] | 0.01938 |  | 
O=C1OC(C(O)CO)C(=O)C1=O (stereo not shown) [Dehydroascorbic acid] | 0.003317 |  | 
NC(=O)NCCC[C@H](N)C(=O)O [L-Citrulline] | -0.01086 |  | 
CC(=O)N[C@H]1[C@H]([C@H](O)[C@H](O)CO)O[C@](OP(=O)(O)OC[C@H]2O[C@@H](n3ccc(N)nc3=O)[C@H](O)[C@@H]2O)(C(=O)O)C[C@@H]1O | -0.01546 |  | 
O=P(O)(O)OC[C@H]1OC(O)[C@@H](O)[C@@H](O)[C@@H]1O (stereo partly drawn) [D-Mannose 6-phosphate] |  | -0.1344 | 
N[C@@H](CCCCNC(=O)CCCC[C@@H]1SC[C@@H]2NC(=O)N[C@@H]21)C(=O)O [Biocytin] | -0.00281 |  | 
Phosphatidylserine |  | 0.1166 | 
O=C(O)C(O)COP(=O)(O)O [D-3-Phosphoglyceric acid] |  | 0.07991 | 
CCCCCCCC(=O)O [Octanoic acid] | -0.007345 |  | 
O=C(CO)[C@@H](O)[C@@H](O)[C@H](O)COP(=O)(O)O [D-Tagatose 6-phosphate] |  | -0.01162 | 
NC(=O)c1cccnc1 [Nicotinamide] |  | -0.1042 | 
COc1cc(CCN)ccc1O [3-Methoxytyramine] |  | 0.126 | 
O=C(O)c1ccoc1 [3-Furoic acid] | -0.01812 |  | 
CC(CC(=O)O)CC(=O)O [3-Methylglutaric acid] |  | -0.09665 | 
O=C[C@H](O)[C@@H](O)[C@H](O)[C@H](O)C(=O)O [D-Glucuronic acid] | -0.01884 |  | 
O=c1ccn([C@@H]2O[C@H](CO)[C@@H](O)[C@H]2O)c(=O)[nH]1 [Uridine] | 0.009821 |  | 
Nc1nc2c(c(=O)[nH]1)N=C(CNc1ccc(C(=O)N[C@@H](CCC(=O)O)C(=O)O)cc1)CN2 [Dihydrofolic acid] |  | -0.03543 | 
C[C@@H](O)CC(=O)O [(R)-3-Hydroxybutyric acid] |  | -0.1099 | 
Glucose-6-phosphate |  |  | Tm of eIF2Bα (eIF2Bα [2]; 0.33 mM metabolite): 64.7198 °C and 64.0494 °C and 65.062 °C and 64.7755 °C; Tm of eIF2Bα (eIF2Bα [2]; 1 mM metabolite): 65.3152 °C and 64.2994 °C and 65.8081 °C and 65.8236 °C; Tm of eIF2Bα (eIF2Bα [2]; 3.3 mM metabolite): 65.2749 °C and 64.6195 °C and 65.7728 °C and 65.1105 °C; Tm of eIF2Bα (eIF2Bα [2]; 10 mM metabolite): 66.5112 °C and 65.3473 °C and 66.6482 °C and 66.6125 °C

Compound | log2(corrected fold change) (eIF2Bα [1]; [3]) | log2(corrected fold change) (eIF2Bα [1]; [4]) | further results
O=P(O)(O)O[C@H]1O[C@H](CO)[C@@H](O)[C@H]1O [D-Ribose 1-phosphate] |  | 0.3189 | 
C[C@H](CO)C(=O)O [(R)-Hydroxyisobutyrate] |  | 0.07137 | 
CCCCC[C@H](O)/C=C/[C@@H]1[C@H]2C/C(=C/CCCC(=O)O)O[C@H]2C[C@H]1O [Prostaglandin I2] |  | 0.05625 | 
N[C@H]1C(O)O[C@H](COP(=O)(O)O)[C@@H](O)[C@@H]1O (stereo partly drawn) [D-Glucosamine 6-phosphate] | -0.005422 |  | 
CC(=O)SCCNC(=O)CCNC(=O)[C@H](O)C(C)(C)COP(=O)(O)OP(=O)(O)OC[C@H]1O[C@@H](n2cnc3c(N)ncnc32)[C@H](O)[C@@H]1OP(=O)(O)O [Acetyl coenzyme A] |  | -0.09022 | 
Cc1ncc(CO)c(CO)c1O [Pyridoxine] |  | -0.04546 | 
C[S+](CC[C@H](N)C(=O)O)C[C@H]1O[C@@H](n2cnc3c(N)ncnc32)[C@H](O)[C@@H]1O (stereo partly drawn) [S-(5-Adenosyl)-L-methionine] | 0.006892 |  | 
PIP2 |  | 0.1728 | 
NC(=O)C1=CN([C@@H]2O[C@H](COP(=O)(O)OP(=O)(O)OC[C@H]3O[C@@H](n4cnc5c(N)ncnc54)[C@H](O)[C@@H]3O)[C@@H](O)[C@H]2O)C=CC1 [NADH] | 0.1674 |  | 
NC(CCS)C(=O)O (racemic) [DL-Homocysteine] | -0.005857 |  | 
NCCCCN=C(N)N [Agmatine] |  | 0.1363 | 
C/C=C/C(=O)SCCNC(=O)CCNC(=O)[C@H](O)C(C)(C)COP(=O)(O)OP(=O)(O)OC[C@H]1O[C@@H](n2cnc3c(N)ncnc32)[C@H](O)[C@@H]1OP(=O)(O)O [Crotonoyl coenzyme A] |  | -2.153 | 
O=c1cc[nH]c(=O)[nH]1 [Uracil] |  | -0.07123 | 
CC(C)[C@H](N)C(=O)O [L-Valine] |  | -0.07845 | 
O=C(O)C/C=C/CC(=O)O [Trans-beta-Hydromuconic acid] |  | 0.04348 | 
N[C@@H](CSSC[C@H](N)C(=O)O)C(=O)O [L-Cystine] | 0.04101 |  | 
O=C[C@H](O)[C@H](O)[C@H](O)CO [D-Ribose] | -0.0769 |  | 
N[C@@H](CCC(=O)N[C@@H](CS)C(=O)O)C(=O)O [Gamma-Glu-Cys] |  | 0.1652 | 
Cc1ncc(CO)c(C=O)c1O [Pyridoxal] | 0.1009 |  | 
CCC(C(=O)O)C(=O)O [Ethylmalonic acid] | -0.03876 |  | 
O=P(O)(O)OC[C@H]1O[C@@H](O)C[C@@H]1O [2-Deoxyribose-5-phosphate] |  | 1.609 | 
COc1cc(C(O)C(=O)O)ccc1O (racemic) [DL-4-Hydroxy-3-methoxymandelic acid] |  | -0.08249 | 
Cn1cncc1C[C@H](NC(=O)CCN)C(=O)O [Anserine] | -0.02715 |  | 
CC(=O)N[C@@H](CC(=O)O)C(=O)N[C@@H](CCC(=O)O)C(=O)O [N-Acetyl-Asp-Glu] (Ac-Asp-Glu-OH) | 0.1173 |  | 
